Earlier results in patent US12280046B2, “Melanocortin subtype-2 receptor (MC2R) antagonist for the treatment of disease” (Crinetics Pharmaceuticals, Inc., priority 2021, dated 2025).
Starred links: 1 amine or outer side, 2 acyl side, 3 side chain; linkers in the order of their positions; H or OH if unused. Non-standard residues stand in square brackets, D forms with d. Residues, ends and D or L forms follow the SMILES beside them. Groups on a side chain read outwards from the residue. *: point of attachment. Ethylenediamine = C(CN[*:2])N[*:1]; Hyp = O=C(O)[C@@H]1C[C@@H](O)CN1; Phg = N[C@H](C(=O)O)c1ccccc1; CO = O=C([*:1])[*:2]; Bn = c1ccc(C*)cc1

Legend:
[1] = assumption for full suppression curve; cited from earlier work
[2] = Phase 3 trial; cited from earlier work

Structure (SMILES)	half-life [1]	patients achieving normalization of urinary free cortisol [2]	patients with a hyperglycemia-related adverse event [2]
C[C@]12CCC(=O)C=C1CC[C@@H]1[C@@H]2[C@@H](O)C[C@@]2(C)[C@H]1CC[C@]2(O)C(=O)CO [cortisol]	1.1 ± 0.3 h		
NCCCC[C@@H]1NC(=O)[C@@H](Cc2c[nH]c3ccccc23)NC(=O)[C@H](c2ccccc2)NC(=O)[C@@H]2C[C@@H](OC(=O)NCCN)CN2C(=O)[C@H](Cc2ccccc2)NC(=O)[C@H](Cc2ccc(OCc3ccccc3)cc2)NC1=O [pasireotide] (cyclo([Hyp]([CO-Ethylenediamine])[Phg][dW]KY(Bn)F))		15-26%	73%
